Experimental data as given in patent publication US20190336496A1, “SELECTIVE BCL-2 INHIBITORS IN COMBINATION WITH AN ANTI-PD-1 OR AN ANTI-PD-L1 ANTIBODY FOR THE TREATMENT OF CANCERS” (AbbVie Inc., priority 2018, published 2019).
“And” between values parts separate entries of the source, which are not always exact repeats. Identical values can stand only once.

Assays:
human PBMCs = experiment: In vitro sensitivity of human PBMCs; type: cell-based
Description: Human PBMCs were thawed and cultured overnight in 30 U/mL of interleukin-2 (IL-2). Cells were harvested, washed once with complete media and counted. PBMCs were plated at a density of 5×10^5 cells per well in a 48-well plate with 30 U/mL IL-2. For stimulation of T-cells, cells were plated in anti-CD3-coated wells (2.5 μg/mL; ThermoFisher cat. #16-0037-85, clone OKT3) and soluble anti-CD28 was added (1 μg/mL; ThermoFisher cat. #16-0289-85, clone CD28.2). Cells were treated with increasing concentrations of venetoclax for 24 hours (dimethyl sulfoxide (DMSO) was used as control). Cells were harvested, stained and subjected to flow cytometry analysis with a BD LSRII instrument (BD Biosciences)
However, when PBMCs were stimulated with anti-CD3 and anti-CD28 for 72 hours before treating with venetoclax, the T-cells were not sensitive to venetoclax. (FIG. 7B). While the proportion of naïve T-cells (CD4^+CD62L^+CD45RO^− and […]) decreased with increasing venetoclax concentrations, the proportion of CD4^+ central memory (TCM; CD62L^+CD45RO^+) and CD8^+ terminally differentiated effector memory (TEMRA; CD8^+CD62L^−CD45RO^−) and effector memory cells (TEM; CD8^+CD62L^−CD45RO^+) increased relative to the number of surviving T-cells (FIGS. 8A and 8C). […] In separate experiments, human PBMCs were thawed, rested overnight and then treated with venetoclax for 24 hours. Similar results were observed when increasing the number of tested samples (n=9 donors), and refining the markers for the different T-cell subsets: naïve T-cells (TN; CD62L+CD45RA+), central memory (TCM; CD62L+CD45RA−), effector memory cells (TEM; CD62L−CD45RA−) and terminally differentiated effector memory (TEMRA; CD62L−CD45RA+) (FIGS. 8E, 8F, 8G). Venetoclax decreases the proportion of naïve T-cells, but not memory cells, and specifically induces an increase in effector memory T-cells. It can therefore be seen that, while naïve T- and B-cells were sensitive to venetoclax, memory T-cells were less sensitive to venetoclax. While TCM cells home to lymph nodes and efficiently stimulate dendritic cells, TEM and TEMRA cells home to tissues, comprised of antigen-experienced cells and are ready to mediate rapid effector and cytotoxic functions necessary to kill the tumor.

CMV-positive human PBMCs = experiment: CMV recall assay using human CMV+ PBMC; type: cell-based
Description: The cytomegalovirus (CMV) recall assay was used to assess the functional effects of Compound (I) on antigen-specific immune cells. This assay used CMV antigen to stimulate pre-existing memory T-cells in CMV-positive human PBMCs. Human CMV-positive PBMCs and CMV antigen were purchased from Astarte Biologics (Cat.No:1001 and Cat. No. 1004, respectively). To measure whether T cells from CMV-positive donor are functionally active, 2×10^5 CMV-positive PBMCs were stimulated with 0.05 μg/mL of CMV antigen and at the same time venetoclax was added. The cells were cultured in Roswell Park Memorial Institute (RPMI) media supplemented with 10% fetal bovine serum (FBS). On day 4, cells were quickly re-stimulated with phorbol 12-myristate-13-acetate (PMA, 0.08 μM)/ionomycin (1.3 μM) and treated with brefeldin A (5 μg/mL) for 4 hours. Cells were stained with the following commercial antibodies: CD3, CD4, IFNγ, and IL-2 (all from Biolegend), as well as with the Zombie Green™ fixable viability kit. Cells were analyzed using an LSRFortessa™ X-20 instrument (BD Biosciences).
The remaining live cells were gated by CD3 and CD4 expression whereas CD3^+CD4^+ cells were considered as CD4^+ T-cells and CD3^+CD4^− cells were considered as CD8^+ T-cells. Production of IFNγ and IL-2 cytokines by CD8+ T-cells was assessed by flow cytometry (FIG. 10B, 10C).

[1] = test system: T-cell subsets in peripheral blood; experiment: T-cell subsets in peripheral blood of healthy volunteers; type: in vivo, human; set-up: key: ↑: increase; ↓: decrease; ≈: no change; conditions: one dose of 100 mg (or dose-equivalent); one day pre- vs seven days post-treatment; per subject
Description: In a clinical study sponsored by AbbVie Inc. healthy volunteers were administered with one dose of 100 mg of Compound (I) (venetoclax) or a dose-equivalent of Compound (IV) in a solid formulation to deliver 100 mg of Compound (I). T-cell subsets in peripheral blood were measured one day pre- and seven days post-treatment by flow cytometry. In most of the tested subjects the fraction of CD4+ and CD8+ T effector memory and terminally differentiated effector memory cells increased, the proportion of CD8+ naïve T-cells has remained unchanged or decreased, and the proportion of CD4+ and CD8+ central memory T cells has decreased following treatment with either agent (Table 7 and FIG. 13).

mouse splenocytes = experiment: In vitro sensitivity of mouse splenocytes; type: cell-based; conditions: BALB/c and C57BL/6 splenocytes, 24 hours
Description: Mouse splenocytes were plated at a density of 5×10^5 cells per well in a 48-well plate with 30 U/mL IL-2. Cells were cultured for 24 hours and then increasing concentrations of venetoclax were added for an additional 24 hours (DMSO was used as control). Cells were harvested, stained and subjected to flow cytometry analysis with an LSRFortessa™ X-20 instrument (BD Biosciences).
To further explore the mechanism for immune modulation in mice, splenocytes from BALB/c and C57BL/6 mice were treated in vitro with venetoclax for 24 hours. The two types of memory T-cells in mice are central memory (TCM; […]) and effector memory T-cells (TEM; […]). While naïve T-cells (CD62L^+CD44^−) were sensitive to venetoclax, effector memory T-cells were not and, importantly, their proportion increased relative to surviving T-cells with increased concentrations of venetoclax. Central memory T-cells were not affected by venetoclax under these experimental conditions (FIG. 9).

[2] = unstimulated, increasing concentrations

CC1(C)CCC(CN2CCN(c3ccc(C(=O)NS(=O)(=O)c4ccc(NCC5CCOCC5)c([N+](=O)[O-])c4)c(Oc4cnc5[nH]ccc5c4)c3)CC2)=C(c2ccc(Cl)cc2)C1 [Compound (I), venetoclax]
proportion of the T-cell subsets (human PBMCs; CD3/CD28 stimulated conditions): did not affect | sensitivity of T-cells (human PBMCs; PBMCs stimulated with anti-CD3 and anti-CD28 for 72 hours before treatment): not sensitive | number of B-cells and T-cells (CD4+ and CD8+) (human PBMCs; unstimulated PBMCs cultured 72 hours, then 24 hours treatment): dose-dependent decrease | proportion of CD4+ TCM, CD8+ TEMRA and CD8+ TEM cells relative to surviving T-cells (human PBMCs; [2]): increased | proportion of naïve T-cells (human PBMCs; [2]): decreased | total number of lymphocytes (CMV-positive human PBMCs; 0.05 μg/mL CMV antigen, day 4): reduced the total number of lymphocytes in a dose-dependent manner | remaining T-cell activation, MFI of IFNγ and IL-2 (CD8+ T-cells) (CMV-positive human PBMCs; CMV antigen, re-stimulated with PMA/ionomycin on day 4): dose-dependent inversely proportional increase | CD4+ T-Cells TCM [1]: ↓ | CD4+ T-Cells TEM [1]: ↑ | CD4+ T-Cells TEMRA [1]: ↑ and ≈ (2×) | CD4+ T-Cells TN [1]: ≈ and ↑ and ↓ | CD8+ T-Cells TCM [1]: ↓ | CD8+ T-Cells TEM [1]: ↑ | CD8+ T-Cells TEMRA [1]: ↑ (2×) and ≈ | CD8+ T-Cells TN [1]: ↓ and ≈ (2×) | central memory T-cells (mouse splenocytes): not affected | sensitivity of naïve T-cells (mouse splenocytes): sensitive | proportion of effector memory T-cells relative to surviving T-cells (mouse splenocytes; increased concentrations): increased
